{"source": "patent US9233176B2", "about": "“Systems and method of delivering fluids to a patient of varying concentration” (Bayer HealthCare LLC, priority 2006, dated 2016)", "origin": "cited, not measured here", "note": "Read-outs that look alike come from different tables or passages of the source.", "data": [{"compound": "COCC(=O)Nc1c(I)c(C(=O)NCC(O)CO)c(I)c(C(=O)N(C)CC(O)CO)c1I", "note": "(centres unmarked) [Iopromide]", "values": [{"measurement": "iodine flux rate", "setting": "300 mg I/ml solution, application flow rate 8 ml/s", "value": 2400, "unit": "mg I/s"}, {"measurement": "iodine flux rate", "setting": "370 mg I/ml solution, application flow rate 6 ml/s", "value": 2220, "unit": "mg I/s"}]}]}
